Laboratory results reported in the NIST ThermoML archive (doi:10.1016/j.jct.2004.06.001).

Experiment: mn = molality of the nth substance listed, in mol/kg
Conditions: Liquid

[I-].[Li+] [lithium iodide] + O
Conditions	mass density [kg/m3]
296.95 K, 2530 kPa, m1 = 1.605	1145.62
296.95 K, 7845 kPa, m1 = 1.605	1148.05
296.95 K, 17808 kPa, m1 = 1.605	1152.57
296.95 K, 25811 kPa, m1 = 1.605	1156.03
297.35 K, 2354 kPa, m1 = 0.6621	1061.06
297.35 K, 12415 kPa, m1 = 0.6621	1065.64
297.35 K, 21241 kPa, m1 = 0.6621	1069.52
297.35 K, 29243 kPa, m1 = 0.6621	1072.92
298.15 K, 101.33 kPa, m1 = 0.0906	1005.8
298.15 K, 101.33 kPa, m1 = 0.2832	1024.34
298.15 K, 101.33 kPa, m1 = 0.6621	1059.93
298.15 K, 101.33 kPa, m1 = 1.605	1144.13
298.15 K, 101.33 kPa, m1 = 3.089	1266.24
308.15 K, 101.33 kPa, m1 = 0.0906	1002.8
308.15 K, 101.33 kPa, m1 = 0.2832	1021.1
308.15 K, 101.33 kPa, m1 = 0.6621	1056.4
308.15 K, 101.33 kPa, m1 = 1.605	1139.99
308.15 K, 101.33 kPa, m1 = 3.089	1261.08
310.65 K, 2040 kPa, m1 = 3.089	1260.87
310.65 K, 17475 kPa, m1 = 3.089	1267.92
310.65 K, 24026 kPa, m1 = 3.089	1270.75
313 K, 3020 kPa, m1 = 0.2832	1020.66
313 K, 10866 kPa, m1 = 0.2832	1024.09
313 K, 21163 kPa, m1 = 0.2832	1028.44
313 K, 31204 kPa, m1 = 0.2832	1032.59
313.75 K, 2275 kPa, m1 = 0.0906	1001.71
313.75 K, 12572 kPa, m1 = 0.0906	1006.16
313.75 K, 28596 kPa, m1 = 0.0906	1012.88
318.15 K, 101.33 kPa, m1 = 0.0906	998.97
318.15 K, 101.33 kPa, m1 = 0.2832	1017.22
318.15 K, 101.33 kPa, m1 = 0.6621	1052.27
318.15 K, 101.33 kPa, m1 = 1.605	1135.39
318.15 K, 101.33 kPa, m1 = 3.089	1255.57
328.15 K, 101.33 kPa, m1 = 0.0906	994.42
328.15 K, 101.33 kPa, m1 = 0.2832	1012.6
328.15 K, 101.33 kPa, m1 = 0.6621	1047.5
328.15 K, 101.33 kPa, m1 = 1.605	1130.28
328.15 K, 101.33 kPa, m1 = 3.089	1249.72
338.15 K, 101.33 kPa, m1 = 0.0906	989.22
338.15 K, 101.33 kPa, m1 = 0.2832	1007.35
338.15 K, 101.33 kPa, m1 = 0.6621	1042.13
338.15 K, 101.33 kPa, m1 = 1.605	1124.64
338.15 K, 101.33 kPa, m1 = 3.089	1243.52
348.15 K, 101.33 kPa, m1 = 0.0906	983.48
348.15 K, 101.33 kPa, m1 = 0.2832	1001.55
348.15 K, 101.33 kPa, m1 = 0.6621	1036.22
348.15 K, 101.33 kPa, m1 = 1.605	1118.49
348.15 K, 101.33 kPa, m1 = 3.089	1236.98
348.4 K, 2157 kPa, m1 = 0.6621	1037.06
348.4 K, 11670 kPa, m1 = 0.6621	1041.32
348.4 K, 23850 kPa, m1 = 0.6621	1046.48
348.4 K, 29910 kPa, m1 = 0.6621	1048.86
348.45 K, 3334 kPa, m1 = 0.2832	1002.87
348.45 K, 13808 kPa, m1 = 0.2832	1007.4
348.45 K, 22536 kPa, m1 = 0.2832	1011.08
348.45 K, 27851 kPa, m1 = 0.2832	1013.21
348.5 K, 3589 kPa, m1 = 1.605	1119.98
348.5 K, 10787 kPa, m1 = 1.605	1123.27
348.5 K, 21516 kPa, m1 = 1.605	1128.02
348.5 K, 27694 kPa, m1 = 1.605	1130.57
349.05 K, 2275 kPa, m1 = 0.0906	983.91
349.05 K, 7668 kPa, m1 = 0.0906	986.28
349.05 K, 16573 kPa, m1 = 0.0906	990.13
349.05 K, 21241 kPa, m1 = 0.0906	992.14
373.2 K, 6276 kPa, m1 = 3.089	1222.39
373.2 K, 17358 kPa, m1 = 3.089	1227.68
373.2 K, 24674 kPa, m1 = 3.089	1230.96
398.15 K, 3432 kPa, m1 = 0.0906	949.25
398.15 K, 5511 kPa, m1 = 0.6621	1002.67
398.15 K, 8728 kPa, m1 = 0.0906	951.87
398.15 K, 15593 kPa, m1 = 0.6621	1007.74
398.15 K, 16181 kPa, m1 = 0.0906	955.54
398.15 K, 22554 kPa, m1 = 0.6621	1011.13
398.15 K, 22710 kPa, m1 = 0.0906	958.45
398.15 K, 29087 kPa, m1 = 0.6621	1013.99
398.2 K, 2942 kPa, m1 = 1.605	1082.97
398.2 K, 10787 kPa, m1 = 1.605	1087.05
398.2 K, 21025 kPa, m1 = 1.605	1092.08
398.2 K, 28753 kPa, m1 = 1.605	1095.49
398.3 K, 3511 kPa, m1 = 0.2832	967.1
398.3 K, 11925 kPa, m1 = 0.2832	971.24
398.3 K, 21398 kPa, m1 = 0.2832	975.83
398.3 K, 30636 kPa, m1 = 0.2832	979.93
448.15 K, 4570 kPa, m1 = 3.089	1157.85
448.15 K, 4903 kPa, m1 = 0.2832	922.17
448.15 K, 14573 kPa, m1 = 3.089	1163.98
448.15 K, 15593 kPa, m1 = 0.2832	928.54
448.15 K, 22869 kPa, m1 = 3.089	1168.32
448.15 K, 24340 kPa, m1 = 0.2832	933.52
448.3 K, 3668 kPa, m1 = 0.0906	902.88
448.3 K, 7924 kPa, m1 = 0.0906	905.5
448.3 K, 15436 kPa, m1 = 0.0906	910.16
448.3 K, 21810 kPa, m1 = 0.0906	913.8
448.33 K, 4805 kPa, m1 = 0.6621	957.8
448.33 K, 15200 kPa, m1 = 0.6621	963.27
448.33 K, 24026 kPa, m1 = 0.6621	968.45
448.33 K, 28675 kPa, m1 = 0.6621	970.94
448.45 K, 3099 kPa, m1 = 1.605	1038.18
448.45 K, 10375 kPa, m1 = 1.605	1042.6
448.45 K, 25497 kPa, m1 = 1.605	1050.41
472.53 K, 8081 kPa, m1 = 0.2832	897.8
472.53 K, 16985 kPa, m1 = 0.2832	904
472.53 K, 23614 kPa, m1 = 0.2832	908.3
474.75 K, 6943 kPa, m1 = 1.605	1014.9
474.75 K, 13317 kPa, m1 = 1.605	1020.2
474.75 K, 24595 kPa, m1 = 1.605	1027
475 K, 6198 kPa, m1 = 0.6621	929.3
475 K, 15926 kPa, m1 = 0.6621	936.2
475 K, 24517 kPa, m1 = 0.6621	941.7
479.05 K, 7590 kPa, m1 = 3.089	1129.2
479.05 K, 16907 kPa, m1 = 3.089	1135.6
479.05 K, 21771 kPa, m1 = 3.089	1138.5
521.05 K, 7924 kPa, m1 = 0.6621	872.4
521.05 K, 11846 kPa, m1 = 0.6621	876.3
521.05 K, 18221 kPa, m1 = 0.6621	882.3
522.63 K, 9473 kPa, m1 = 0.2832	834.6
522.63 K, 21516 kPa, m1 = 0.2832	846.6
522.63 K, 27047 kPa, m1 = 0.2832	851.1
522.91 K, 8493 kPa, m1 = 1.605	961.6
522.91 K, 14867 kPa, m1 = 1.605	967.1
522.91 K, 20050 kPa, m1 = 1.605	971.2
523.15 K, 7178 kPa, m1 = 3.089	1079.91
523.15 K, 12415 kPa, m1 = 3.089	1084.49
523.15 K, 21810 kPa, m1 = 3.089	1091.96
572.75 K, 12415 kPa, m1 = 0.6621	795.1
572.75 K, 19201 kPa, m1 = 0.6621	806
572.75 K, 24419 kPa, m1 = 0.6621	813.4
573.15 K, 11591 kPa, m1 = 1.605	896.3
573.15 K, 16338 kPa, m1 = 1.605	902.6
573.15 K, 20672 kPa, m1 = 1.605	907.3
575.75 K, 15022 kPa, m1 = 0.2832	750.9
575.75 K, 19201 kPa, m1 = 0.2832	758.8
575.75 K, 24516 kPa, m1 = 0.2832	767.7
600.25 K, 12650 kPa, m1 = 3.089	1019.35
600.25 K, 18534 kPa, m1 = 3.089	1025.9
600.25 K, 22143 kPa, m1 = 3.089	1029.61
